The target of assay [1] is T1, P2Y purinoceptor 6 (Homo sapiens, UniProt Q15077). The experiment in a line: Agonist activity at human P2Y6 receptor expressed in human 1321N1 cells coexpressing phospholipase C-activating Gq protein assessed as [3H]inositol phosphate production. Particulars: for pEC50: read-out: EC50. It counts as functional, cell-based.
The next assay deals with T2, P2Y purinoceptor 14 (Homo sapiens, UniProt Q15391).
T2 sequence (Q15391 whole entry): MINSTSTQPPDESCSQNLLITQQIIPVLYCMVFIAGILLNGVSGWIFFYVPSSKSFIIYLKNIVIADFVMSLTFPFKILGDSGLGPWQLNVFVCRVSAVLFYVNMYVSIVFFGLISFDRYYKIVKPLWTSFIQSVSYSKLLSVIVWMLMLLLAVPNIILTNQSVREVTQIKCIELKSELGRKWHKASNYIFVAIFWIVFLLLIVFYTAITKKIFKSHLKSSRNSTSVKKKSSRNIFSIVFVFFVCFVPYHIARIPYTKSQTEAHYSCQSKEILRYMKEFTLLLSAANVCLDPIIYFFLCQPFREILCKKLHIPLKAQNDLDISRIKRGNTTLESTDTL
The experiment in a line: Agonist activity at human P2Y14 receptor expressed in HEK293 cells coexpressing phospholipase C-activating Gi protein cells assessed as inhibition of forskolin induced [3H]cAMP production. The format is functional, cell-based. The settings on record: for pEC50: read-out: EC50. Background: cAMP levels reflect the balance of adenylyl cyclase and phosphodiesterase activity.

Another assay is filed under the species Homo sapiens. The experiment in a line: Selectivity, ratio of EC50 for human P2Y6 receptor to EC50 for human P2Y14 receptor.
In assay [2] the target is T1, P2Y purinoceptor 6. The experiment in a line: Agonist activity at human P2Y6 receptor expressed in human 1321N1 cells coexpressing phospholipase C-activating Gq protein assessed as [3H]inositol phosphate production at 10 uM. It counts as functional, cell-based.
In assay [3] the target is T3, P2Y purinoceptor 14 (Homo sapiens) (UniProt Q15391).
T3 sequence (whole entry): T2 sequence (Q15391 whole entry)
Kind of assay: Agonist activity at human P2Y14 receptor expressed in HEK293 cells coexpressing phospholipase C-activating Gi protein cells assessed as inhibition of forskolin induced [3H]cAMP production at 10 uM. It counts as functional, cell-based.

By pEC50 is commonly meant the negative decadic logarithm of the EC50, by convention in mol/L.

pEC50: −log10 of the molar value. The source made the active and inactive calls. The calls are words filed in the database; no cut-off is given here. Where only a bound is given, the exact number is not on record here.

T1 sequence (Q15077 whole entry): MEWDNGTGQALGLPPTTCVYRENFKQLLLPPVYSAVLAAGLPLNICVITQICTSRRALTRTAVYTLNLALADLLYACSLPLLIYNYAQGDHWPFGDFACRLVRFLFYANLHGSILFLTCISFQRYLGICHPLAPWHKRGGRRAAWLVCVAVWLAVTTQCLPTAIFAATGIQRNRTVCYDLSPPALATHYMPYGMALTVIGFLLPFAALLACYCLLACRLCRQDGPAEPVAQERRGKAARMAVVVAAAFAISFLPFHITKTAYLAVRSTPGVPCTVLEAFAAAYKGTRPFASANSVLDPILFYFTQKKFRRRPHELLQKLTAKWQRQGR

Regarding `CCCOP(=O)(O)OP(=O)(O)OC[C@H]1O[C@@H](n2ccc(=O)[nH]c2=S)[C@H](O)[C@@H]1O`, the pEC50 was 5.04 on P2Y purinoceptor 6 [1] and 7.40 on P2Y purinoceptor 14. Further, the Ratio EC50 in the assay listed under Homo sapiens came out at 230.
For `COP(=O)(O)OP(=O)(O)OC[C@H]1O[C@@H](n2ccc(=O)[nH]c2=O)[C@H](O)[C@@H]1O`, the negative-log EC50 (pEC50) is 5.56 at P2Y purinoceptor 14 and less than 5.00 on P2Y purinoceptor 6 [2].
Take `O=c1ccn([C@@H]2O[C@H](COP(=O)(O)OP(=O)(O)O)[C@@H](O)[C@H]2O)c(=O)[nH]1` [URIDINE_DIPHOSPHATE]: the pEC50 at P2Y purinoceptor 6 [1] is 6.28.
On to `N#CCCOP(=O)(O)OP(=O)(O)OC[C@H]1O[C@@H](n2ccc(=O)[nH]c2=O)[C@H](O)[C@@H]1O`, for which the pEC50 on P2Y purinoceptor 14 was 5.13; at P2Y purinoceptor 6 [2], less than 5.00.
The corresponding values for `C#CCCOP(=O)(O)OP(=O)(O)OC[C@H]1O[C@@H](n2ccc(=O)[nH]c2=S)[C@H](O)[C@@H]1O` are 7.96 and less than 5.00.
With `CC(C)(C)OP(=O)(O)OP(=O)(O)OC[C@H]1O[C@@H](n2ccc(=O)[nH]c2=O)[C@H](O)[C@@H]1O`, on P2Y purinoceptor 14, the pEC50 is 6.60. Besides, the Ratio EC50 in the assay listed under Homo sapiens worked out at 43.
With `CCN(CC)CC.COP(=O)(O)OP(=O)(O)OC[C@H]1O[C@@H](n2ccc(=S)[nH]c2=O)[C@H](O)[C@@H]1O`, at P2Y purinoceptor 6 [1], the pEC50 was 4.98. Also, the EC50 entry at P2Y purinoceptor 14 (hek293) is on record as “Not Active”.
For the compound `CC(C)(C)OP(=O)(O)OP(=O)(O)OC[C@H]1O[C@@H](n2ccc(=O)[nH]c2=S)[C@H](O)[C@@H]1O`, the pEC50 was 5.69 on P2Y purinoceptor 6 [1] and 7.49 at P2Y purinoceptor 14. Moreover, the Ratio EC50 in the assay listed under Homo sapiens was found to be 64.
The corresponding values for `O=c1ccn([C@@H]2O[C@H](COP(=O)(O)OP(=O)(O)O)[C@@H](O)[C@H]2O)c(=S)[nH]1` are 6.35, 8.72 and 230.
For `O=c1[nH]c(=S)ccn1[C@@H]1O[C@H](COP(=O)(O)OP(=O)(O)O[C@H]2O[C@H](CO)[C@@H](O)[C@H](O)[C@H]2O)[C@@H](O)[C@H]1O`, the values for the pEC50 at P2Y purinoceptor 14 and at P2Y purinoceptor 6 [2] were 7.96 and less than 5.00, respectively.
For `CCOP(=O)(O)OP(=O)(O)OC[C@H]1O[C@@H](n2ccc(=O)[nH]c2=S)[C@H](O)[C@@H]1O`, the pEC50 at P2Y purinoceptor 14 was 7.41; at P2Y purinoceptor 6 [2], less than 5.00. In addition, the Ratio EC50 in the assay filed under Homo sapiens is greater than 250.
Turning to `O=c1ccn([C@@H]2O[C@H](COP(=O)(O)OP(=O)(O)OC3CCCCC3)[C@@H](O)[C@H]2O)c(=O)[nH]1`, the pEC50 is 5.29 at P2Y purinoceptor 14 and less than 5.00 at P2Y purinoceptor 6 [2].
Take `O=c1ccn([C@@H]2O[C@H](COP(=O)(O)OP(=O)(O)Oc3ccccc3)[C@@H](O)[C@H]2O)c(=O)[nH]1`: the pEC50 at P2Y purinoceptor 6 [1] is 5.13; on P2Y purinoceptor 14 it was 6.11.
Regarding `O=c1ccn([C@@H]2O[C@H](COP(=O)(O)CP(=O)(O)O)[C@@H](O)[C@H]2O)c(=O)[nH]1`, the figures for the pEC50 on P2Y purinoceptor 6 [1] and on P2Y purinoceptor 14 were 6.47 and 7.96, respectively. Besides, the Ratio EC50 in the assay listed under Homo sapiens was determined as 31.
For the compound `O=c1ccn([C@H]2[C@H](O)[C@H](O)[C@@]3(COP(=O)(O)OP(=O)(O)O)C[C@H]23)c(=O)[nH]1`, the result (on P2Y purinoceptor 6 [2]; in assay [3]) was inactive.
Turning to `COP(=O)(O)OP(=O)(O)OC[C@H]1O[C@@H](n2ccc(=O)[nH]c2=S)[C@H](O)[C@@H]1O`, the pEC50 on P2Y purinoceptor 14 was 7.25; on P2Y purinoceptor 6 [2], less than 5.00.
The like results for `O=c1ccn([C@@H]2O[C@H](COP(=O)(O)OP(=O)(O)OCC(O)CO)[C@@H](O)[C@H]2O)c(=O)[nH]1` (some centres not stated) were, in that order, 5.80 and less than 5.00.
For `CO/N=c1/ccn([C@@H]2O[C@H](COP(=O)(O)OP(=O)(O)O)[C@@H](O)[C@H]2O)c(=O)[nH]1`, the pEC50 is 7.15 on P2Y purinoceptor 6 [1] and 5.48 on P2Y purinoceptor 14.
For `O=c1ccn([C@@]23C[C@H]2[C@H](COP(=O)(O)OP(=O)(O)O)[C@@H](O)[C@H]3O)c(=O)[nH]1`, at P2Y purinoceptor 6 [1], the pEC50 is 7.38. Also, the outcome in assay [3] was inactive.
Consider `COc1ccc(OP(=O)(O)OP(=O)(O)OC[C@H]2O[C@@H](n3ccc(=O)[nH]c3=O)[C@H](O)[C@@H]2O)cc1`, for which the values for the pEC50 at P2Y purinoceptor 14 and at P2Y purinoceptor 6 [2] were 5.72 and less than 5.00, respectively.
As for `O=c1ccn([C@@H]2O[C@H](COP(=O)(O)OP(=O)(O)Oc3ccc([N+](=O)[O-])cc3)[C@@H](O)[C@H]2O)c(=O)[nH]1`, the results for the pEC50 at P2Y purinoceptor 6 [1] and on P2Y purinoceptor 14 were 5.56 and 5.83, respectively.
In the case of `O=c1ccn([C@@H]2O[C@H](COP(=O)(O)CP(=O)(O)O)[C@@H](O)[C@H]2O)c(=S)[nH]1`, the pEC50 on P2Y purinoceptor 6 [1] was 5.70; at P2Y purinoceptor 14, 9.04. For the same compound, the Ratio EC50 in the assay listed under Homo sapiens turned out to be 2160.
For `O=c1ccn([C@@H]2O[C@H](COP(=O)(O)OP(=O)(O)Oc3cccc(Cl)c3)[C@@H](O)[C@H]2O)c(=O)[nH]1`, the pEC50 on P2Y purinoceptor 6 [1] is 5.13; on P2Y purinoceptor 14 it was 5.74.
Regarding `O=c1ccn([C@@H]2O[C@H](COP(=O)(O)C(F)(F)P(=O)(O)O)[C@@H](O)[C@H]2O)c(=O)[nH]1`, the EC50 result at P2Y purinoceptor 6 [1] (1321-n1) is reported as “Not Active”. Further, the pEC50 on P2Y purinoceptor 14 is 7.20.
Consider `C#CCCOP(=O)(O)OP(=O)(O)OC[C@H]1O[C@@H](n2ccc(=O)[nH]c2=O)[C@H](O)[C@@H]1O`, for which the values for the pEC50 at P2Y purinoceptor 6 [1] and at P2Y purinoceptor 14 were 5.82 and 6.32, respectively.
`O=c1ccn([C@@H]2O[C@H](COP(=O)(O)OP(=O)(O)OC(CO)CO)[C@@H](O)[C@H]2O)c(=O)[nH]1`: the results for the pEC50 on P2Y purinoceptor 14 and at P2Y purinoceptor 6 [2] were 6.78 and less than 5.00, respectively. Besides, the Ratio EC50 in the assay filed under Homo sapiens came out at 59.
For `O=c1[nH]c(=S)ccn1[C@@H]1O[C@H](COP(=O)(O)OP(=O)(O)O)[C@@H](O)[C@H]1O`, the figures for the pEC50 at P2Y purinoceptor 6 [1] and on P2Y purinoceptor 14 were 5.63 and 6.49, respectively.
The like results for `O=c1[nH]c(=O)n([C@@H]2O[C@H](COP(=O)(O)C(F)(F)P(=O)(O)O)[C@@H](O)[C@H]2O)cc1I` were, in that order, 6.90 and 6.85.

Source of the values: ChEMBL document CHEMBL1156754, “Human P2Y(14) receptor agonists: truncation of the hexose moiety of uridine-5'-diphosphoglucose and its replacement with alkyl and aryl groups” (J Med Chem, 2010).
